The values that follow come from ChEMBL document CHEMBL4402605, “A Chemical Switch for Transforming a Purine Agonist for Toll-like Receptor 7 to a Clinically Relevant Antagonist” (J Med Chem, 2020).

A short description of data set [1]: AUC (0 to 24 hrs) in C57BL/6 mouse at 15 mg/kg, iv by LC-MS/MS analysis. In kind it is ADME, organism-based. As to conditions: in vivo. More on the design: time < 24 hr, dose 15 mg/kg, route intravenous.
The nature of a further data set: physchem. The following applies: phosphate buffer, pH 7.4.
Another data set deals with HEK293. The data set can be described thus: Cytotoxicity against HEK293 cells assessed as reduction in cell viability up to 100 uM measured after overnight incubation by propidium iodide staining based flow cytometry. The following applies: human. In general terms: A flow cytometer gives signals particle by particle.
In another data set the target is T1, Toll-like receptor 7 (Homo sapiens, UniProt Q9NYK1).
T1 sequence (Q9NYK1 whole entry): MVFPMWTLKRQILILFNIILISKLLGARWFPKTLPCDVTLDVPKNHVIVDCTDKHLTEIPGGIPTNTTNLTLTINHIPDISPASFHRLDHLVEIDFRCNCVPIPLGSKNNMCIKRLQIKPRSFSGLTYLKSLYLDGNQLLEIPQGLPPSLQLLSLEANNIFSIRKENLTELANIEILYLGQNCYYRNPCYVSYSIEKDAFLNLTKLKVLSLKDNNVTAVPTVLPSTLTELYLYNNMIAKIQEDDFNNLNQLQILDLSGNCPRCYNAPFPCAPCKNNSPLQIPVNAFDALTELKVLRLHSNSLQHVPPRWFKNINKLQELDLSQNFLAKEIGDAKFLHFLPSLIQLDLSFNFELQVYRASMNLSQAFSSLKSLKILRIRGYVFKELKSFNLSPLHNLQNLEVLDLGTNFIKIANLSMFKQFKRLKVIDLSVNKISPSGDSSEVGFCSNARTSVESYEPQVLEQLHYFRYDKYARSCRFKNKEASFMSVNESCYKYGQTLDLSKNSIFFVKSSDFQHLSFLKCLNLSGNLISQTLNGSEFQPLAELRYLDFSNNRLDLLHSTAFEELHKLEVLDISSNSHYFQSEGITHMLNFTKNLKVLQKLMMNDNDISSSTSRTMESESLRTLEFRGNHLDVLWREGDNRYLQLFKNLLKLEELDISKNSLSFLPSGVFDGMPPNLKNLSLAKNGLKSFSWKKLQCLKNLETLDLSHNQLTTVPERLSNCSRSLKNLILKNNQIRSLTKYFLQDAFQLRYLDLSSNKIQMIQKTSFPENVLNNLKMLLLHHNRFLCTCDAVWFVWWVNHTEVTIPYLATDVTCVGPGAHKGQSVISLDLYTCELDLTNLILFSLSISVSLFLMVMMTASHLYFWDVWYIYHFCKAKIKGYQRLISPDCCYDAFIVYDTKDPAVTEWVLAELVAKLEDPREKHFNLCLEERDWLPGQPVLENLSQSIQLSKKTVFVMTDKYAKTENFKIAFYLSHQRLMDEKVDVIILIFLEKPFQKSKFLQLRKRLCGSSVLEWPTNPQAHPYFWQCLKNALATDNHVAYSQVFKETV

Data set [2] can be described thus: Toxicity in C57BL/6 mouse assessed as physiological abnormalities at 15 mg/kg, po administered once daily via gavage for 7 consecutive days and measured post-last dose by H and E staining based histomorphological analysis. It counts as organism-based. As to conditions: in vivo.
Data set [3] is described as follows: Tmax in C57BL/6 mouse at 15 mg/kg, po administered via gavage by LC-MS/MS analysis. In kind it is ADME, organism-based. The following applies: in vivo.
For data set [4], the system named is Mus musculus. Put plainly: Protection against imiquimod-induced C57BL/6 mouse model of psoriasis assessed as suppression of vascular dilatation at 15 mg/kg, po administered via gavage treated 1 day prior to imiquimod application and subsequent daily dosing for 7 consecutive days and measured post-last dose by H and E staining based histopathological analysis. It counts as functional.

Data set [5] can be described thus: Half life in human liver microsomes at 100 uM by LC-MS/MS analysis. On the technique in general: Microsomes from liver hold many membrane-bound enzymes, among them those of drug oxidation.
A short description of data set [6]: Toxicity in C57BL/6 mouse assessed as glomerular hypertrophy at 15 mg/kg, po administered once daily via gavage for 7 consecutive days and measured post-last dose by H and E staining based histomorphological analysis. In kind it is organism-based. As to conditions: in vivo.
Data set [7] in a line: Toxicity in C57BL/6 mouse assessed as change in lung microanatomy at 15 mg/kg, po administered once daily via gavage for 7 consecutive days and measured post-last dose by H and E staining based histomorphological analysis. In kind it is organism-based. As to conditions: in vivo.
The nature of data set [8]: AUC (0 to 24 hrs) in C57BL/6 mouse at 15 mg/kg, po administered via gavage by LC-MS/MS analysis. In kind it is ADME, organism-based. More on the design: time < 24 hr, dose 15 mg/kg, route oral. The following applies: in vivo.
Data set [9] concerns Mus musculus. The data set can be described thus: Protection against imiquimod-induced C57BL/6 mouse model of psoriasis assessed as reduction in TNFalpha mRNA expression at 15 mg/kg, po administered via gavage treated 1 day prior to imiquimod application and subsequent daily dosing for 7 consecutive days and measured post-last dose by SYBR green dye based qPCR analysis. In kind it is functional, organism-based. Background: Quantitative PCR measures a nucleic acid by following its amplification.

In data set [10] the test system is Mus musculus. The data set can be described thus: Protection against imiquimod-induced C57BL/6 mouse model of psoriasis assessed as suppression of microabscesses at 15 mg/kg, po administered via gavage treated 1 day prior to imiquimod application and subsequent daily dosing for 7 consecutive days and measured post-last dose by H and E staining based histopathological analysis. In kind it is functional.

A short description of data set [11]: Toxicity in C57BL/6 mouse assessed as inflammation of kidney at 15 mg/kg, po administered once daily via gavage for 7 consecutive days and measured post-last dose by H and E staining based histomorphological analysis. It counts as organism-based. As to conditions: in vivo.
Data set [12] is described as follows: Toxicity in C57BL/6 mouse assessed as capsular space obliteration at 15 mg/kg, po administered once daily via gavage for 7 consecutive days and measured post-last dose by H and E staining based histomorphological analysis. The following applies: in vivo. It counts as organism-based.
A short description of data set [13]: Toxicity in C57BL/6 mouse assessed as mesangial proliferation at 15 mg/kg, po administered once daily via gavage for 7 consecutive days and measured post-last dose by H and E staining based histomorphological analysis. As to conditions: in vivo. In kind it is organism-based.

≈ marks a conversion by molar mass, not a printed value. Calls of active or inactive are those of the source.

Description for Toll-like receptor 7: Antagonist activity at human TLR7 expressed in HEK-Blue cells assessed as inhibition of CL264-induced NFkappaB activation by measuring reduction in SEAP level after overnight incubation using qunati-blue reagent by SEAP reporter gene-based spectrophotometric method
Description for physchem: Aqueous solubility of the compound in pH 7.4 0.25 M phosphate buffer at 500 uM incubated for 18 hrs under stirred condition by UV-HPLC analysis

Consider `CCN1CCN(CCCn2cnc3c(N4CCN(CC)CC4)ncnc32)CC1`, for which the AUC(0-t) at 24 h was 50.9 µg·h/mL in data set [1] and 36.1 µg·h/mL in data set [8]. Also, in the data set “physchem”, the solubility at 18 h, 500 µM amounted to 0.2 mg/mL (≈ 518 µM). The Activity entry is reported as “Non-Toxic” in the data set with HEK293; “Non-Toxic” in data set [2]; 100% with Mus musculus [4]; “Non-Toxic” in [6]; “Non-Toxic” in data set [7]; 100% with Mus musculus [10]. The Activity result in [11], in data set [12] and in data set [13] was “Non-Toxic” each time. The same compound registered an IC50 against Toll-like receptor 7 of 4.7 µM. The Tmax in data set [3] came out at 2 h. The same compound came in with a half-life at 100 µM in data set [5] of 1.5 h. Also, the outcome in the data set on Mus musculus [9] was Active.

For orientation: AUC(0-t) means the area under the concentration-time curve up to a stated or last time point. A low value points to low exposure. One may read the solubility as the dissolved amount per volume that the medium holds. Low values mean little dissolved substance, high ones much dissolved substance. A word on the IC50: it is the concentration that gives 50% inhibition. Low values mean higher potency, high ones lower potency. By Tmax is commonly meant the time from dosing to the highest level. In general, half-life refers to the time needed for the level to fall by half in the phase considered. Low readings indicate rapid decline, high ones slow decline.
